Data as given in patent US20090105283A1, “3-HYDROQUINAZOLIN-4-ONE DERIVATIVES FOR USE AS STEAROYL CoA DESATURASE INHIBITORS” (priority 2007, published 2009).

target: T1, stearoyl-CoA desaturase (SCD) (Rattus norvegicus, UniProt P07308); experiment: SCD assay with rat liver microsomes ([3H]stearoyl CoA, adapted from Talamo and Bloch); type: biochemical; settings: Table 1; rat liver microsomes 0.2 mg/ml assay final, [3H]stearoyl CoA substrate, 30 min preincubation, 45 min reaction, room temperature
T1 construct: The microsomes were quickly thawed and added to assay buffer so that a concentration of 0.4 mg/ml was achieved; from tissue
T1 sequence (P07308 1-358): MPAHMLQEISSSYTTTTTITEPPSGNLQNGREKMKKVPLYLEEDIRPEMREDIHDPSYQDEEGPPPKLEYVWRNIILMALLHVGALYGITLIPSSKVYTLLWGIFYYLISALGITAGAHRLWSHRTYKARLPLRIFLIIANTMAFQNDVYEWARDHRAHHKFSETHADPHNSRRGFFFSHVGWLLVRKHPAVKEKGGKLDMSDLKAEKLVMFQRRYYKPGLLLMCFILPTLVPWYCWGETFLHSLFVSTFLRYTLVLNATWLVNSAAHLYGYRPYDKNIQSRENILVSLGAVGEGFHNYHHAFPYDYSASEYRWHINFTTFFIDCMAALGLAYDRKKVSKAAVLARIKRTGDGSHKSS
Text: Male Spraque Dawley Rats were placed on regimented fasting protocol for one week to stimulate SCD enzymatic activity. 48-hour periods were alternated between feeding and fasting to induce and down-regulate SCD activity with SCD activity being induced via carbohydrate rich diet prior to liver perfusion and collection.
The rats were anesthetized with Isoflurane inhalation anesthetic, the liver perfused with cold phosphate buffered saline (PBS), weighed, and chilled in cold homogenization buffer (250 mM sucrose, 10 mM Tris, 1 mM EDTA, pH 7.6.
The livers were finely minced and placed in homogenization tube. 40 mL of homogenization buffer was added to the homogenization tube and the liver homogenized and centrifuged in a pre-chilled […] for 10 min at 4° C.
Following centrifugation, the supernatant was collected and the pellet removed and discarded. The supernatant was centrifuge at 10,000 G for 35 minutes. Following centrifugation, the supernatant was collect and the pellet discarded. The supernatant was then centrifuged in a pre-chilled 45-Ti rotor at 130,000 G (41,000 RPM) for 90 minutes at 4° C.
The supernatant was then aspirated off and the collected microsomal pellet washed in 25 mL of Glycerol PBS (1×PBS 7.4, 20% Glycerol) and resuspended in 4-5 volumes of Glycerol PBS.
The protein concentration of the microsomal preparation was determined by BCA assay (Pierce) and the microsomes were aliquoted and stored at −80° C.
Biobeads were ground to a smaller size in a mortar and pestle and resuspended in 3.6% TCA. The beads were then filtered through […] mesh.
SCD was determined in the desaturase assay buffer. This assay buffer contained 0.1 M Tris buffer, pH 7.2, 2 mM NADH, 4.8 mM ATP, 0.5 mM CoA, 4.8 mM MgCl2, and 0.1% BSA.
1 μl of each compound of Formula I was added to an assay plate by a low volume (0.5-10 μL) multichannel pipette. A DMSO control was also prepared. The microsomes were quickly thawed and added to assay buffer so that a concentration of 0.4 mg/ml was achieved (0.2 mg/ml assay final). 50 μl of the microsome suspension in assay buffer was then added into each well in the compound assay plate, the plate was covered, and the microsomes preincubated with the compounds for 30 minutes on the orbital shaker, 50-75 rpm, at room temperature.
The reaction mixtures were then incubated for 45 minutes on the orbital shaker at 50-75 rpm at room temperature.
The reaction was terminated by the addition of 10 μl of 21% trichloroacetic acid (TCA) to the reaction mixture followed incubation on the orbital shaker for 30 minutes at 50-75 rpm at room temperature followed by centrifugation for 5 minutes at 3700 rpm.
50 μl of a 6% Bio-Bead suspension in H2O was added to the reaction mixture and the assay plate was sealed. The Bio-Bead mixture was incubated on the orbital shaker for 1 hour, 100-150 rpm at room temperature, and then the mixture was centrifuged at 2000 g for 5 minutes to pellet the Bio-Beads.
25 μl of the supernatant was harvested from each well and transferred to a detection plate. 100 μl of OptiPhase SuperMix scinitillation cocktail (containing sufficient NaOH to neutralize the TCA) was added and the solutions mixed by vigorous shaking (300-400 rpm) for 5 minutes at room temperature.

IC50 [nM] | Structure (SMILES)
1380 | O=C(CO)Nc1ccc2ncn(Cc3cccc(C(F)(F)F)c3)c(=O)c2c1 [XCV, 2-hydroxy-N-(4-oxo-3-{[3-(trifluoromethyl)phenyl]methyl}(3-hydroquinazolin-6-yl))acetamide]
2740 | CC(=O)OCC(=O)Nc1ccc2ncn(Cc3ccc(C(F)(F)F)cc3)c(=O)c2c1 [XCVI, [N-(4-oxo-3-{[4-(trifluoromethyl)phenyl]methyl}-3-hydroquinazolin-6-yl)carbamoyl]methyl acetate]
3160 | O=C(CO)Nc1ccc2ncn(Cc3ccc(C(F)(F)F)cc3)c(=O)c2c1 [XCVII, 2-hydroxy-N-(4-oxo-3-{[4-(trifluoromethyl)phenyl]methyl}(3-hydroquinazolin-6-yl))acetamide]
1320 | CC(=O)OCC(=O)Nc1ccc2ncn(Cc3ccc(Cl)c(F)c3)c(=O)c2c1 [XCVIII, (N-{3-[(4-chloro-3-fluorophenyl)methyl]-4-oxo-3-hydroquinazolin-6-yl}carbamoyl)methyl acetate]
4700 | COC(=O)Nc1ccc2ncn(Cc3ccc(Cl)c(Cl)c3)c(=O)c2c1 [XIII, N-{3-[(3,4-dichlorophenyl)methyl]-4-oxo(3-hydroquinazolin-6-yl)}methoxycarboxamide]
25700 | C=CCOC(=O)Nc1ccc2ncn(Cc3ccc(Cl)cc3)c(=O)c2c1 [XIV, N-{3-[(4-chlorophenyl)methyl]-4-oxo(3-hydroquinazolin-6-yl)}prop-2-enyloxycarboxamide]
11700 | CC(=O)NCC(=O)Nc1ccc2ncn(Cc3ccc(Cl)c(Cl)c3)c(=O)c2c1 [XIX, 2-(acetylamino)-N-{3-[(3,4-dichlorophenyl)methyl]-4-oxo(3-hydroquinazolin-6-yl)}acetamide]
9500 | O=C(COc1ccccc1)Nc1ccc2ncn(Cc3ccc(F)c(Cl)c3)c(=O)c2c1 [XL, N-{3-[(3-chloro-4-fluorophenyl)methyl]-4-oxo(3-hydroquinazolin-6-yl)}-2-phenoxyacetamide]
8000 | O=C(COc1ccccc1)Nc1ccc2ncn(Cc3ccc4ccsc4c3)c(=O)c2c1 [XLI, N-[3-(benzo[b]thiophen-6-ylmethyl)-4-oxo(3-hydroquinazolin-6-yl)]-2-phenoxyacetamide]
2170 | O=C(CCC(=O)c1ccccc1)Nc1ccc2ncn(Cc3ccc(Cl)c(Cl)c3)c(=O)c2c1 [XLII, N-{3-[(3,4-dichlorophenyl)methyl]-4-oxo(3-hydroquinazolin-6-yl)}-4-oxo-4-phenylbutanamide]
6400 | O=C(COc1cccc(F)c1)Nc1ccc2ncn(Cc3ccc(Cl)cc3)c(=O)c2c1 [XLIII, N-{3-[(4-chlorophenyl)methyl]-4-oxo(3-hydroquinazolin-6-yl)}-2-(3-fluorophenoxy)acetamide]
1600 | O=C(COc1ccccc1)Nc1ccc2c(=O)n(Cc3ccc(Cl)cc3)cnc2c1 [XLIV, N-{3-[(4-chlorophenyl)methyl]-4-oxo(3-hydroquinazolin-7-yl)}-2-phenoxyacetamide]
2500 | O=C(COc1cccnc1)Nc1ccc2c(=O)n(Cc3ccc(Cl)cc3)cnc2c1 [XLIX, N-{3-[(4-chlorophenyl)methyl]-4-oxo(3-hydroquinazolin-7-yl)}-2-(3-pyridyloxy)acetamide]
860 | O=C(Nc1ccc2ncn(Cc3ccc4sccc4c3)c(=O)c2c1)OCc1ccccc1 [XLV, N-[3-(benzo[b]thiophen-5-ylmethyl)-4-oxo(3-hydroquinazolin-6-yl)](phenylmethoxy)carboxamide]
450 | O=C(Nc1ccc2ncn(Cc3ccc(F)c(Cl)c3)c(=O)c2c1)OCc1ccccc1 [XLVI, N-{3-[(3-chloro-4-fluorophenyl)methyl]-4-oxo(3-hydroquinazolin-6-yl)}(phenylmethoxy)carboxamide]
100 | CC(=O)OCC(=O)Nc1ccc2ncn(Cc3ccc(Cl)c(Cl)c3)c(=O)c2c1 [XLVII, (N-{3-[(3,4-dichlorophenyl)methyl]-4-oxo-3-hydroquinazolin-6-yl}carbamoyl)methyl acetate]
90 | O=C(Nc1ccc2c(=O)n(Cc3ccc(Cl)cc3)cnc2c1)OCc1ccccc1 [XLVIII, N-{3-[(4-chlorophenyl)methyl]-4-oxo(3-hydroquinazolin-7-yl)}(phenylmethoxy)carboxamide]
220 | O=C(COc1ccccc1)Nc1ccc2ncn(Cc3ccc(Cl)c(Cl)c3)c(=O)c2c1 [XV, N-{3-[(3,4-dichlorophenyl)methyl]-4-oxo(3-hydroquinazolin-6-yl)}-2-phenoxyacetamide]
470 | O=C(Nc1ccc2ncn(CCc3ccc(Cl)cc3)c(=O)c2c1)OCc1ccccc1 [XVI, N-{3-[2-(4-chlorophenyl)ethyl]-4-oxo(3-hydroquinazolin-6-yl)}(phenylmethoxy)carboxamide]
2980 | COc1ccc(OCC(=O)Nc2ccc3ncn(Cc4ccc(Cl)c(Cl)c4)c(=O)c3c2)cc1 [XVII, N-{3-[(3,4-dichlorophenyl)methyl]-4-oxo(3-hydroquinazolin-6-yl)}-2-(4-methoxyphenoxy)acetamide]
2100 | O=C(COc1ccc(F)cc1)Nc1ccc2ncn(Cc3ccc(Cl)c(Cl)c3)c(=O)c2c1 [XVIII, N-{3-[(3,4-dichlorophenyl)methyl]-4-oxo(3-hydroquinazolin-6-yl)}-2-(4-fluorophenoxy)acetamide]
2920 | Cc1cc(C)cc(OCC(=O)Nc2ccc3ncn(Cc4ccc(Cl)c(Cl)c4)c(=O)c3c2)c1 [XX, N-{3-[(3,4-dichlorophenyl)methyl]-4-oxo(3-hydroquinazolin-6-yl)}-2-(3,5-dimethylphenoxy)acetamide]
3450 | Cc1cccc(C)c1OCC(=O)Nc1ccc2ncn(Cc3ccc(Cl)c(Cl)c3)c(=O)c2c1 [XXI, N-{3-[(3,4-dichlorophenyl)methyl]-4-oxo(3-hydroquinazolin-6-yl)}-2-(2,6-dimethylphenoxy)acetamide]
5700 | Cc1ccc(OCC(=O)Nc2ccc3ncn(Cc4ccc(Cl)c(Cl)c4)c(=O)c3c2)cc1 [XXII, N-{3-[(3,4-dichlorophenyl)methyl]-4-oxo(3-hydroquinazolin-6-yl)}-2-(4-methylphenoxy)acetamide]
170 | O=C(Nc1ccc2ncn(Cc3ccc(Cl)c(Cl)c3)c(=O)c2c1)OCc1cccnc1 [XXIII, N-{3-[(3,4-dichlorophenyl)methyl]-4-oxo(3-hydroquinazolin-6-yl)}(3-pyridylmethoxy)carboxamide]
300 | O=C(Nc1ccc2ncn(Cc3ccc(F)cc3)c(=O)c2c1)OCc1ccccc1 [XXIV, N-{3-[(4-fluorophenyl)methyl]-4-oxo(3-hydroquinazolin-6-yl)}(phenylmethoxy)carboxamide]
1980 | O=C(COc1ccccc1Cl)Nc1ccc2ncn(Cc3ccc(Cl)c(Cl)c3)c(=O)c2c1 [XXIX, N-{3-[(3,4-dichlorophenyl)methyl]-4-oxo(3-hydroquinazolin-6-yl)}-2-(2-chlorophenoxy)acetamide]

Structure (SMILES) | IC50 [nM]
Cc1ccc(OC(=O)Nc2ccc3ncn(Cc4ccc(Cl)c(Cl)c4)c(=O)c3c2)cc1 [XI, N-{3-[(3,4-dichlorophenyl)methyl]-4-oxo(3-hydroquinazolin-6-yl)}(4-methylphenoxy)carboxamide] | 2700
O=C(Nc1ccc2ncn(Cc3ccc(Cl)c(Cl)c3)c(=O)c2c1)Oc1ccc(F)cc1 [XII, N-{3-[(3,4-dichlorophenyl)methyl]-4-oxo(3-hydroquinazolin-6-yl)}(4-fluorophenoxy)carboxamide] | 13000
